# Entries after “also recorded” stand apart in the source; their conditions may differ.
# Columns and labels:
# [1] = test system: MRC5 cells; assay: Expression microarray analysis of KIN101-treated MRC5 cells; format: cell-based, human; conditions: 10 μM
# Method: Expression microarray analysis and bioinformatics were performed as follows. Total RNA isolation and mRNA amplification were performed on equal masses of total RNA from MRC5 cells treated with either DMSO, negative control, or 10 μM KIN101 at 20 hours post treatment, and from MRC5 cells infected with Sendai virus at 20 hours post infection. Probe labeling and microarray slide hybridization were performed with the Agilent Whole Human Genome microarrays, wherein each microarray contains 44K probes, corresponding to approximately 41,000 human genes. Slides were scanned with an Agilent DNA microarray scanner, and the resulting images were analyzed using Agilent Feature Extractor (AFE) version 9.5.3.1. All data were entered into a custom-designed Oracle 9i-backed relational database (Labkey, Inc., Seattle, Wash.) and uploaded into Rosetta Resolver System 7.2 (Rosetta Biosoftware) and Spotfire Decision Site 9.1.1 (Spotfire AB) for analysis and visualization. […] Functional analysis of statistically significant gene expression changes was performed with IPA® (Ingenuity Systems, Inc., Redwood City, Calif.). This software analyzes RNA expression data in the context of known biological response and regulatory networks as well as other higher-order response pathways. IPA functional analysis identified biological functions and/or diseases that were most significant among differentially regulated genes. In the functional networks, genes are represented as nodes, and the biological relationship between 2 nodes is represented as an edge (line). All edges are supported by at least 1 published reference or from canonical information stored in the Ingenuity Pathways Knowledge Base. MRC5 cells were treated with KIN101 (10 μM) or a negative control (selected from the diversity library for having no activity in screening assays) for 20 h. Sendai virus infection was used as a positive control for the up-regulation of innate immune pathways. Total RNA was purified from triplicate samples to enable statistical analysis of the microarray data.
# [2] = test system: IRF-3; assay: IRF-3 nuclear translocation in cells expressing HCV NS3-4A protease (viral countermeasure); conditions: human osteosarcoma cells expressing HCV NS3-4A protease, 10 μM, 18 h
# Method: Human osteosarcoma cells were stably transformed with the HCV NS3-4A protease coding sequence under control of a tetracycline inducible promoter. Cells were grown in the presence of tetracycline to keep expression of HCV protease off. […] Sendai virus infection was used as a control for IRF-3 translocation that was inhibited by HCV NS3-4A protease. Mock-treated cells were grown in media containing 0.5% DMSO. Images were analyzed on an Array Scan VTI to quantitate the IRF-3 staining in the nucleus and cytoplasm.
# U2OS NS3/4A cells were thoroughly washed to remove Tetracycline and then seeded for the assay in the absence of Tetracycline to enable NS3/4A expression. Compound treatments were done as described above for Huh 7 cells.
# [3] = test system: RSV-A2; assay: RSV viral RNA by Real Time PCR in HeLa supernatants; format: cell-based, respiratory syncitial virus (RSV); conditions: RSV-A2 MOI=1.0, 48 hours
# Method: HeLa cells were infected with RSV-A2 MOI=1.0 and subsequently treated with KIN101 at the indicated concentrations and grown for 48 hours. Supernatants from infected cells were harvested, RSV RNA was purified and viral RNA quantitated utilizing Real Time PCR with RSV specific primers. Cells infected with RSV that were not KIN101-treated were utilized as a control.
# [4] = test system: Dengue virus serotype 2; assay: Dengue virus protein western blot in HEK 293 cells; format: cell-based; conditions: 0.1 uM, pre-treated 18 hours, MOI=1.0, 48 hours
# Method: HEK 293 cells were seeded to a confluency of 80% in a 6-well dish. Cells were grown for 18 hours under normal growth conditions. Cells were treated with the indicated concentration of KIN101 in media containing 0.5% DMSO for 18 hours. The next day drug was removed from treated cells and cells were infected with Dengue virus serotype 2 at an MOI=1.0; infected cells were incubated under normal growth conditions for 48 hours. For Dengue virus analysis whole cell lysates were prepared and analyzed by western blot for Dengue virus specific proteins.
# [5] = test system: HCV-2a; assay: HCV-2a antiviral assays in Huh 7 cells (immunofluorescence, qPCR); format: cell-based, Hepatitis C virus; conditions: Huh7 cells, HCV-2a MOI 1.0
# Method: Huh 7 cells were treated with KIN101 for 24 hours and then infected with HCV-2a MOI=1.0. Cells were grown for an additional 48 hours and then stained for HCV proteins. The number of infected cells versus concentration of KIN101 added was plotted in panel A.
# Huh 7 cells were pre-treated with KIN101 at 10 uM and grown for 18 hours. Cells were then infected with HCV-2a MOI=1.0 and grown for an additional 72 hours. Supernatants from infected cells were harvested, HCV RNA was purified and viral RNA quantitated utilizing Real Time PCR with HCV specific primers. Cells infected with HCV that were not KIN101-treated were utilized as a control and values set to 100% infection rate. Interferon-alpha was used as a positive control for HCV inhibition.
# Huh 7 cells were infected with HCV-2a MOI=1.0 and 4 hours following infection compounds or interferon were added to infected cells. The remainder of experiment was performed as described for FIG. 7B.
# Huh 7 cells were seeded as described above for the IRF-3 immunofluorescent assay. Cells were treated with 10 μM compound in media containing 0.5% DMSO. […] The number of infected cells was quantitated based on positive staining. […]
# Huh 7 cells were seeded and treated as described above for the HCV antiviral assay. […] The genome copies of HCV2a in 5 μL of RNA purified from supernatants was quantitated by qPCR. […]
# [6] = test system: proteins downstream of IRF activation; assay: Western blot of IRF centric gene products in treated cells; format: cell-based, human; conditions: after KIN101 treatment; IFN-β positive control
# Source text: Western blot was used to quantitate levels of IRF centric gene products in human whole cell lysates from cells treated with KIN101.
# [7] = test system: actin promoter; assay: actin promoter luciferase counter screen in Huh 7 cells; format: cell-based, human; conditions: 10 uM
# [8] = test system: RSV A2 strain; assay: RSV-infected HeLa cell viability (trypan blue count); format: cell-based, respiratory syncitial virus (RSV); conditions: HeLa cells, RSV A2 MOI=1.0, treated 48 hours
# Method: HeLa cells were infected with RSV A2 strain MOI=1.0 and were then treated with KIN101 for 48 hours. Cells were grown under normal growth conditions and cell viability was determined by counting the number of live cells and comparing drug treated and RSV infected cells to infected cells that were mock treated (no drug; vehicle alone). Cells were stained with trypan blue and counted using a hemacytometer. The number of live cells versus concentration of KIN101 added was plotted.
# [9] = test system: Influenza A virus WSN strain; assay: Influenza A antiviral assays (NP ELISA, western blot); format: cell-based; conditions: NP protein ELISA / western blot
# [10] = test system: RSV; assay: RSV plaque formation in HeLa cells; format: cell-based, respiratory syncitial virus (RSV); conditions: MOI=1.0 or 0.1, 10 uM in agar overlay, 3-4 days
# Method: HeLa cells were seeded to 90% confluency and infected with RSV at MOI=1.0 (1^3 dilution) or MOI=0.1 (1^4 dilution) for 2 hours. Virus was removed and cells were overlayed with agar in the presence of KIN101 10 uM. Infected cells were incubated for 3-4 days to allow for RSV plaque formation. Plaques were visualized by staining with crystal violet.
# [11] = test system: Huh7 cells; format: cell-based, human
# Method: To assess a potential effect of KIN101 on cellular metabolism, Huh7 cells were grown for 48 hours with increasing doses of KIN101 and analyzed using an MTS assay (the higher the O.D. the more metabolism occurring).
# Huh 7 cells were seeded in clear bottom 96-well tissue culture plates and grown for 24 hours. Seeded cells were treated with increasing concentrations of compound (0, 5, 10, 20, and 50 μM in media containing 0.5% DMSO) for 24 hours. Negative control wells contained 0.5% DMSO only and positive control for cytotoxicity was examined using an EMCV infection which causes 100% cytopathic effect. The proportion of viable cells was calculated using a cell viability assay that measures conversion of a tetrazolium compound [[…]-5-(3-carboxymethoxyphenyl)-2-(4-sulfophenyl)-2H-tetrazolium, inner salt; MTS] to a colored formazan compound in live cells. The conversion of MTS to formazan was detected by a 96-well microtiter plate reader, and the resulting optical densities (O.D.) were used directly to estimate cell viability. Cells were incubated for three hours in the presence of one-step reagent (Cell Titer One, Promega) before O.D. reading was done. Experiments were performed in triplicate.
# [12] = test system: ISG54 promoter; assay: ISG54 promoter luciferase reporter assay / high-throughput screen in Huh 7 cells; format: cell-based, human
# Method: A compound referred to herein as “KIN101” was identified by the screening methods disclosed herein as a RIG-I modulator. Huh 7 cells stably expressing a luciferase cistron driven by the ISG54 promoter were treated with KIN101 for 18 hours and then analyzed for luciferase production. […] Huh 7 cells were stably transfected with a luciferase promoter construct driven by the consensus ISG54 promoter. The following sequence was inserted into the pGL4.17 construct (Promega) using the restriction sites indicated (underlined): Reporter cell lines were cultured under antibiotic selection until seeding. Cells were seeded in white opaque bottom 96-well tissue culture plates at a density of 1×10^4 cells/well and grown for 24 hours without antibiotic selection. […] The remainder of the wells were treated with compound diluted to a final concentration of 10 μM in media containing 0.5% DMSO. Cells were incubated with control or compound treatment for 24 hours. Steady-Glo luciferase reagent (Promega) was added at 50 μL per well, mixed thoroughly, and incubated at room temperature for 20 minutes. Luminescence was quantitated per well using a luminometer (Berthold). Confirmation of initial hits was performed in triplicate.
# [13] = test system: IRF-3; assay: Immunofluorescent assay for nuclear translocation of IRF-3 in Huh7 cells; format: cell-based, human; conditions: 10 μM, 18 h
# Method: Huh 7 cells were seeded in clear bottom 96-well tissue culture plates at a density of 5×10^3 cells per well and grown for 24 hours. Cells were treated with compounds at final concentrations of 20 μM and 10 μM in media containing 0.5% DMSO. Negative control cells contain 0.5% DMSO only and positive control cells were infected with 10 HA of Sendai virus. […] Staining was performed as directed by instructions in the Cellomics translocation kit (Thermo Scientific). Rabbit polyclonal antibody against IRF-3 was used (1:400). Secondary anti-rabbit antibody conjugated to Dylight 488 (FITC equivalent) and Hoescht dye (nuclear stain) were used for detection of cellular IRF-3 and cell nuclei. Following secondary antibody incubation the monolayers were washed and left in 100 μL wash buffer for imaging. IRF-3 (FITC) and nuclear staining (DAPI) were viewed and quantitated by inverted microscope. Images were taken using MetaMorph software and saved as high resolution image files. Compound treatments were done in triplicate.
# [14] = 20 h, ANOVA p-value <0.01, >2 fold change
smiles,measurement,setting,value
CS(=O)(=O)Oc1ccc2c(=O)c(-c3ccc(Br)cc3)coc2c1 [KIN101],differentially expressed genes compared to DMSO treatment,[1]; [14],75 genes
same,down-regulated genes compared to DMSO treatment,[1]; [14],11 genes
same,up-regulated genes compared to DMSO treatment,[1]; [14],64 genes
same,expression of immune pathways,[1]; 20 hours post treatment,induced expression of discrete immune pathways centered on IRF signaling
same,IRF-3 nuclear translocation in the presence of viral countermeasure,[2],induction of IRF-3 nuclear translocation
same,amount of RSV viral RNA produced by infected cells,[3],decreases the amount of RSV viral RNA produced by infected cells
same,inhibition of Dengue virus protein accumulation,[4],substantially complete inhibition
same,antiviral activity against HCV,[5],antiviral activity
same,abundance of proteins downstream of IRF activation (Western blot),[6],increased abundance of proteins downstream of IRF activation
same,expression of luciferase under control of the actin promoter,[7],did not increase expression of luciferase
same,protection from RSV induced cytopathic effects and cell death,[8],protects cells from RSV induced cytopathic effects and cell death
same,antiviral activity against Influenza A,[9],antiviral activity
same,number and size of RSV induced plaques,[10],decreases the number and size of viral induced plaques
same,effect on cellular metabolism (MTS assay),[11],did not affect cellular metabolism
same,hit in high-throughput screen for ISG54 luciferase reporter activity (RIG-I agonist activity),"[12]; 20,000-member diversity library screened at 10 μM, four standard deviation threshold",hits
same,luciferase expression under control of the ISG54 promoter,"[12]; Huh 7 cells, treated 18 hours, increasing doses",dose dependent increase in luciferase expression
same,IRF-3 nuclear translocation,[13],induced nuclear translocation of IRF-3; also recorded: induction of IRF-3 nuclear translocation

# Source: patent US9458492B2, “Methods and cells for identifying RIG-I pathway regulators” (Kineta, Inc., priority 2011, dated 2016)
